Reference: patent publication US10538516B2, “Oxadiazole derivative and pharmaceutical containing same” (National Center for Geriatrics and Gerontology, priority 2015, dated 2020)
Where two headings read alike, the source gives them in different places.

Target: T1, GAβ-dependent amyloid fibril formation (Human Aβ1-40 + GM1-containing liposome) (Homo sapiens, UniProt P05067)
T1 construct: Human Aβ1-40 (cat. #4307-v, prepared by Peptide Institute); purchased Peptide Institute 4307-v
Assay: Thioflavin T (ThT) assay of GAβ-dependent amyloid fibril formation (Aβ1-40 with GM1-containing liposome)
Assay type: biochemical
Procedure: <3. Evaluation of the Compounds Based on the Inhibitory Activity Against Amyloid Fibril Formation in Thioflabin T (ThT) Assay>
Inhibitory activity against GAβ-dependent amyloid fibril formation of the above compounds 1 to 133 and 142 to 267 were evaluated in ThT assay.
(1) Preparation of Aβ Solution
Human Aβ1-40 (cat. #4307-v, prepared by Peptide Institute) was dissolved in a 0.02% ammonia solution (400 μM), and the mixture was treated in an ultracentrifuge (S110AT rotor, Hitachi) at 100,000 rpm for 3 hours. Approximately two-thirds of the upper layer of the supernatant was recovered and protein concentration was measured. The Aβ solution was aliquoted and stored at −80° C. until use, was melted immediately before use, and was diluted to 75 μM using phosphate buffer (PBS: cat. #10010, manufactured by Life Technologies).
(2) Preparation of GM1-Containing Liposome
Using a mixed solution of chloroform/methanol (1:1) as a solvent, a mixed solution of 100 mM each of cholesterol and sphingomyelin (both manufactured by Sigma-Aldrich) was prepared. To this mixed solution, GM 1 (cat. #1061, manufactured by Matreya Co.) was dissolved to make a solution of 50 mM concentration. This lipid mixed solution was aliquoted into glass test tubes and stored at −20° C. until use, was melted before use, was mixed with chloroform/methanol mixture (1:1) and mixed, and then the solvent was removed by applying nitrogen gas to the suspension. The dried lipid mixture was resuspended in PBS to be a GM1 concentration of 2.5 mM, and frozen and thawed 5 times with liquid nitrogen. The lipid suspension was centrifuged at 15,000 rpm for 10 minutes and the precipitate was resuspended in PBS to be a GM1 concentration of 2.5 mM. Using an ultrasonic crusher (XL-2000, MISONIX Co., Ltd.) equipped with a microchip, ultrasonic treatment was repeated on ice for 10 seconds until the suspension became transparent, and GM1-containing liposome was prepared. Immediately prior to use, PBS was added and diluted to a GM 1 concentration of 75 μM.
(3) Preparation of Compound Solution
Compounds 1 to 133 and 142 to 267 were prepared as 10 mM and 2 mM solution in DMSO, respectively. And each solution was diluted to 75 μM or 15 μM with PBS immediately prior to use.
(4) GAβ-Dependent Amyloid Fibril Formation
To a 96-well microplate, 5 μl each of the 75 μM Aβ solution prepared above (1), the compound solution prepared in (3) or 0.75% DMSO was mixed and incubated at room temperature for 10 minutes. Then, 5 μl each of 750 μM GM1-containing liposome prepared in (2) was added to each well and incubated at 37° C. for 18 hours.
ThT (manufactured by Sigma-Aldrich) was adjusted to 5 μM using 50 mM glycine-NaOH buffer (pH 8.5). Immediately before measurement, 10 μl from each well of (4) was transferred to a 96-well black plate. 50 μl of 5 μM ThT solution was added from each injector to each well using a multi-plate reader (ARVO-HTS, manufactured by Perkin Elmer), and then the optimal fluorescence of ThT bound to amyloid fiber (excitation wavelength 430 nm, fluorescence wavelength 490 nm) was measured.
The fluorescence intensity of ThT indicates the degree of amyloid fibrils formation. By calculating the ratio of the ThT fluorescence intensity between addition of the compound and without addition of the compound, the inhibition rate against amyloid fibril formation by the compound was calculated.

[1] = read-out: ThT Inhibitory activity (% inhibition)
[2] = @25 μM, read-out: ThT Inhibitory activity (% inhibition)
[3] = inhibition rate against amyloid fibril formation, final concentration of the compound 25 μM, read-out: Inhibitory activity ABC evaluation

T1 sequence (P05067 672-711 limits assumed): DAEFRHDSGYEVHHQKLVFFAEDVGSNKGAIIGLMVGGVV

O=C(NC(CO)c1nc(-c2ccc(O)cc2)no1)c1ccc(Cl)cc1 (stereo not drawn) [Compound 78, 4-chloro-N-{2-hydroxy-1-[3-(4-hydroxyphenyl)-1,2,4-oxadiazol-5-yl]ethyl}benzamide]
inhibition at 5 µM [1]: 52%
inhibition at 25 µM [2]: 89%
inhibition at 25 µM [3]: > 80%

O=C(Nc1ccc(Cl)cc1)NC1(c2nc(-c3ccc(OC(F)(F)F)cc3)no2)CCCC1 [Compound 36, 1-(4-chlorophenyl)-3-(1-[3-{4-(trifluoromethoxy)phenyl}-1,2,4-oxadiazol-5-yl]cyclopentyl)urea]
inhibition at 25 µM [3]: < 40%

O=C(N[C@@H](CO)c1nc(-c2cc3cc(F)ccc3[nH]2)no1)c1ccc(F)cc1 [Compound 267, 4-fluoro-N-[(1S)-1-[3-(5-fluoro-1H-indol-2-yl)-1,2,4-oxadiazol-5-yl]-2-hydroxyethyl] benzamide]
inhibition at 25 µM [3]: > 80%

O=C(N[C@@H](CO)c1nc(-c2ccc3[nH]cc(F)c3c2)no1)c1ccc(F)cc1 [Compound 194, 4-fluoro-N-[(1S)-1-[3-(3-fluoro-1H-indol-5-yl)-1,2,4-oxadiazol-5-yl]-2-hydroxyethyl] benzamide]
inhibition at 25 µM [3]: 40 to 80%

O=C(N[C@@H](CO)c1nc(-c2ccc(C(F)(F)F)cc2)no1)c1ccccc1 [Compound 130, (S)-N-(2-hydroxy-1-(3-(4-(trifluoro-methyl)phenyl)-1,2,4-oxadiazol-5-yl)ethyl)benzamide]
inhibition at 5 µM [1]: 67%
inhibition at 25 µM [2]: 85%
inhibition at 25 µM [3]: > 80%

COc1ccc(-c2noc([C@@H](N)Cc3c[nH]c4ccccc34)n2)cc1 [Compound 18, (S)-2-(1H-indol-3-yl)-1-{3-(4-methoxyphenyl)-1,2,4-oxadiazol-5-yl}ethan-1-amine]
inhibition at 25 µM [2]: 86%
inhibition at 25 µM [3]: > 80%

O=C(N[C@@H](CO)c1nc(-c2nccc3ccccc23)no1)c1ccc(F)cc1 [Compound 226, 4-fluoro-N-[(1S)-2-hydroxy-1-[3-(isoquinolin-1-yl)-1,2,4-oxadiazol-5-yl]ethyl]benzamide]
inhibition at 25 µM [3]: 40 to 80%

O=C(N[C@@H](CO)c1nc(-c2ccc(C(F)F)cc2)no1)c1ccccc1 [Compound 168, N-[(1S)-1-{3-[4-(difluoromethyl)phenyl]-1,2,4-oxadiazol-5-yl}-2-hydroxyethyl] benzamide]
inhibition at 25 µM [3]: > 80%

O=S(=O)(N[C@@H](CO)c1nc(-c2ccc(OC(F)(F)F)cc2)no1)c1cccc(Cl)c1 [Compound 91, (S)-3-chloro-N-(2-hydroxy-1-[3-{4-(trifluoromethoxy)phenyl}-1,2,4-oxadiazol-5-yl]ethyl)benzenesulfonamide]
inhibition at 25 µM [3]: 40 to 80%

N[C@@H](Cc1c[nH]c2ccccc12)c1nc(-c2ccc(OC(F)(F)F)cc2)no1 [Compound 25, (S)-2-(1H-indole-3-yl)-1-[3-(4-trifluoromethoxyphenyl)-1,2,4-oxadiazole-5-yl]ethane-1-amine]
inhibition at 25 µM [3]: > 80%

O=C1CC(CO)(c2nc(-c3ccc(O)c(F)c3)no2)CN1c1ccc(Cl)cc1 (stereo not drawn) [Compound 90, 1-(4-chlorophenyl)-4-{3-(3-fluoro-4-hydroxyphenyl)-1,2,4-oxadiazol-5-yl}-4-(hydroxy-methyl)pyrrolidin-2-one]
inhibition at 25 µM [3]: 40 to 80%

COc1ccc(-c2noc(C3CC(=O)N(c4ccc(Cl)cc4)C3)n2)cc1F (stereo not drawn) [Compound 42]
inhibition at 25 µM [3]: 40 to 80%

O=C1CC(c2nc(-c3ccc4c(c3)OC(F)(F)O4)no2)CN1c1ccc(Cl)cc1 (stereo not drawn) [Compound 32, 1-(4-chlorophenyl)-4-{3-(2,2-difluoro-benzo[d][1,3]dioxol-5-yl)-1,2,4-oxadiazol-5-yl}pyrrolidin-2-one]
inhibition at 5 µM [1]: 43%
inhibition at 25 µM [2]: 86%
inhibition at 25 µM [3]: > 80%

C[C@H](O)[C@H](NC(=O)c1ccc(Cl)cc1)c1nc(-c2ccc(OC(F)(F)F)cc2)no1 [Compound 127, 4-chloro-N-((1S,2S)-2-hydroxy-1-(3-(4-(trifluoromethoxy)phenyl)-1,2,4-oxa-diazol-5-yl)propyl) benzamide]
inhibition at 25 µM [3]: 40 to 80%

O=C1CC(c2nc(-c3ccccc3OC(F)(F)F)no2)CN1c1ccc(Cl)cc1 (stereo not drawn) [Compound 67, 1-(4-chloro-phenyl)-4-[3-{2-(trifluoro-methoxy)phenyl}-1,2,4-oxadiazol-5-yl]pyrrolidin-2-one]
inhibition at 25 µM [3]: 40 to 80%

O=C(N[C@@H](CO)c1nc(-c2ccc(O)c(F)c2)no1)c1ccc(Cl)cc1 [Compound 99, (S)-4-chloro-N-(1-(3-(3-fluoro-4-hydroxyphenyl)-1,2,4-oxadiazol-5-yl)-2-hydroxy-ethyl)benzamide]
inhibition at 25 µM [3]: 40 to 80%

O=C(N[C@@H](CO)c1noc(-c2ccc(OC(F)(F)F)cc2)n1)c1ccccc1 [Compound 128, (R)-N-(2-hydroxy-1-(5-(4-(trifluoro-methoxy)phenyl)-1,2,4-oxadiazol-3-yl)ethyl)benzamide]
inhibition at 25 µM [3]: 40 to 80%

CN(C)c1ccc(C(=O)N[C@@H](CO)c2nc(-c3ccc(C(F)(F)F)cc3)no2)cc1 [Compound 209, 4-(dimethylamino)-N-[(1S)-2-hydroxy-1-{3-[4-(trifluoromethyl)phenyl]-1,2,4-oxadiazol-5-yl}ethyl]benzamide]
inhibition at 25 µM [3]: > 80%

O=C(N[C@@H](CO)c1nc(-c2ccc(OCCO)cc2)no1)c1ccccc1 [Compound 156, N-[(1S)-2-hydroxy-1-{3-[4-(2-hydroxyethoxy)phenyl]-1,2,4-oxadiazol-5-yl}ethyl] benzamide]
inhibition at 25 µM [2]: 74%
inhibition at 25 µM [3]: 40 to 80%

NC(Cc1c[nH]c2ccccc12)c1nc(-c2ccc3c(c2)OC(F)(F)O3)no1 (stereo not drawn) [Compound 40, 1-{3-(2,2-difluorobenzo[d] [1,3]dioxol-5-yl)-1,2,4-oxadiazol-5-yl}-2-(1H-indol-3-yl)ethan-1-amine]
inhibition at 5 µM [1]: 38%
inhibition at 25 µM [2]: 80%
inhibition at 25 µM [3]: > 80%

O=C(N[C@@H](CO)c1nc(-c2cc(Cl)sc2Cl)no1)c1ccc(F)cc1 [Compound 231, N-[(1S)-1-[3-(2,5-dichlorothiophen-3-yl)-1,2,4-oxadiazol-5-yl]-2-hydroxyethyl]-4-fluorobenzamide]
inhibition at 25 µM [3]: 40 to 80%

O=C(N[C@@H](CO)c1nc(-c2cn(CCO)c3ccccc23)no1)c1ccc(F)cc1 [Compound 264]
inhibition at 25 µM [3]: 40 to 80%

O=C(N[C@@H](CO)c1nc(-c2ccc(OC(F)(F)F)cc2)no1)c1c[nH]c2cc(Cl)ccc12 [Compound 76, (S)-6-chloro-N-(2-hydroxy-1-[3-{4-(trifluoro-methoxy)phenyl}-1,2,4-oxadiazol-5-yl}ethyl)-1H-indole-3-carboxamide]
inhibition at 25 µM [3]: 40 to 80%

O=C(c1ccc(Cl)cc1)N1C[C@@H](O)C[C@H]1c1nc(-c2ccc(OC(F)(F)F)cc2)no1 [Compound 56, (4-chlorophenyl) ((2S,4S)-4-hydroxy-2-[3-{4-(trifluoro-methoxy)phenyl}-1,2,4-oxadiazol-5-yl]pyrrolidin-1-yl)methanone]
inhibition at 25 µM [3]: < 40%

O=C(N[C@@H](CO)c1nc(-c2cccc(C(F)(F)F)c2)no1)c1c[nH]c2ccccc12 [Compound 243, N-[(1S)-2-hydroxy-1-{3-[3-(trifluoromethyl)phenyl]-1,2,4-oxadiazol-5-yl}ethyl]-1H-indole-3-carboxamide]
inhibition at 25 µM [3]: < 40%

O=C(N[C@@H](CO)c1nc(-c2ccc(-c3ccccc3)s2)no1)c1ccc(F)cc1 [Compound 248, 4-fluoro-N-[(1S)-2-hydroxy-1-[3-(5-phenylthiophen-2-yl)-1,2,4-oxadiazol-5-yl]ethyl]benzamide]
inhibition at 25 µM [3]: 40 to 80%

O=C(N[C@@H](CO)c1nc(-c2ccc(O)cc2)no1)c1ccccc1 [Compound 146, N-[(1S)-2-hydroxy-1-[3-(4-hydroxy-phenyl)-1,2,4-oxadiazol-5-yl]ethyl]benzamide]
inhibition at 25 µM [2]: 87%
inhibition at 25 µM [3]: > 80%

O=C(N[C@@H](CO)c1nc(-c2ccc(OCC(F)(F)F)cc2)no1)c1ccc(F)cc1 [Compound 216]
inhibition at 25 µM [3]: < 40%
